pIC50: −log10 of the molar value. Where “and” joins values, the source holds several entries; their conditions need not be identical. Equal values may be shown once.
Tested on: 958767-090-R-J1-PDC spheroid growth
Test: Anticancer human tumor 958767-090-R-J1-PDC patient-derived head and neck squamous carcinoma cell line growth inhibition [IpAb]
Conditions: spheroids with HUVEC and MSC; for viability, T/C: stronger effect = lower value
Outline: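 Combinations with ipatasertib or abemaciclib were tested on tumour spheroids holding HUVEC (25%) and MSC (15%) alongside 60% malignant cells. Top concentration was at or near clinical Cmax (10 microM if undefined), descending in half-log steps.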

[1] = curve of first compound, second compound 0.1 µM
[2] = curve of first compound, second compound 0.316 µM
[3] = curve of first compound, second compound 1 µM
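Also: spheroids exposed to agents for 7 days.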
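For viability, T/C in this document: 100% = DMSO vehicle control wells.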

Cn1cnc2c(F)c(Nc3ccc(Br)cc3Cl)c(C(=O)NOCCO)cc21 + CC(C)NCC(C(=O)N1CCN(c2ncnc3c2C(C)CC3O)CC1)c1ccc(Cl)cc1
pIC50 [1]: 7.74 | pIC50 [2]: > 8.02 | pIC50 [3]: > 8.02 | pIC50 (curve of first compound, second compound 3.16 µM): > 8.02 | pIC50 (curve of first compound, second compound 10 µM): > 8.02 | viability, T/C (second compound 0.1 µM, first compound 0.00949 µM): 62% | viability, T/C (second compound 0.1 µM, first compound 0.03 µM): 38.9% | viability, T/C (second compound 0.1 µM, first compound 0.0949 µM): 30.5% | viability, T/C (second compound 0.1 µM, first compound 0.3 µM): 20.8% | viability, T/C (second compound 0.1 µM, first compound 0.949 µM): 17.7% | viability, T/C (second compound 0.1 µM, first compound 3 µM): 9.06% | viability, T/C (second compound 0.316 µM, first compound 0.00949 µM): 36% | viability, T/C (second compound 0.316 µM, first compound 0.03 µM): 26.8% | viability, T/C (second compound 0.316 µM, first compound 0.0949 µM): 19.2% | viability, T/C (second compound 0.316 µM, first compound 0.3 µM): 14.3% | viability, T/C (second compound 0.316 µM, first compound 0.949 µM): 9.47% | viability, T/C (second compound 0.316 µM, first compound 3 µM): 3.29% | viability, T/C (second compound 1 µM, first compound 0.00949 µM): 28.1% | viability, T/C (second compound 1 µM, first compound 0.03 µM): 21.7% | viability, T/C (second compound 1 µM, first compound 0.0949 µM): 15.2% | viability, T/C (second compound 1 µM, first compound 0.3 µM): 10.1% | viability, T/C (second compound 1 µM, first compound 0.949 µM): 4.39% | viability, T/C (second compound 1 µM, first compound 3 µM): 1.34% | viability, T/C (second compound 3.16 µM, first compound 0.00949 µM): 30.4% | viability, T/C (second compound 3.16 µM, first compound 0.03 µM): 18.6% | viability, T/C (second compound 3.16 µM, first compound 0.0949 µM): 10.1% | viability, T/C (second compound 3.16 µM, first compound 0.3 µM): 6.15% | viability, T/C (second compound 3.16 µM, first compound 0.949 µM): 1.7% | viability, T/C (second compound 3.16 µM, first compound 3 µM): 0.65% | viability, T/C (second compound 10 µM, first compound 0.00949 µM): 21.7% | viability, T/C (second compound 10 µM, first compound 0.03 µM): 9.62% | viability, T/C (second compound 10 µM, first compound 0.0949 µM): 4.16% | viability, T/C (second compound 10 µM, first compound 0.3 µM): 1.43% | viability, T/C (second compound 10 µM, first compound 0.949 µM): 0.55% | viability, T/C (second compound 10 µM, first compound 3 µM): 0.67%

Cn1nccc1Nc1nccc(-c2ccn(C(CO)c3ccc(Cl)c(F)c3)c(=O)c2)n1 (configuration not stated)
viability, T/C (compound 0.0316 µM): 92.1% and 96.5% | viability, T/C (compound 0.1 µM): 72.6% and 82.8% | viability, T/C (compound 0.316 µM): 71.3% and 72.6% | viability, T/C (compound 1 µM): 55.1% and 69.1% | viability, T/C (compound 3.16 µM): 54.4% and 50% | viability, T/C (compound 10 µM): 21.6% and 26.4% | pIC50 (curve of compound): 5.70 and 5.54

Cn1nccc1Nc1nccc(-c2ccn(C(CO)c3ccc(Cl)c(F)c3)c(=O)c2)n1 (configuration not stated) + CCN1CCN(Cc2ccc(Nc3ncc(F)c(-c4cc(F)c5nc(C)n(C(C)C)c5c4)n3)nc2)CC1
pIC50 (curve of first compound, second compound 0.01 µM): 5.80 | pIC50 (curve of first compound, second compound 0.0316 µM): 5.79 | pIC50 [1]: 6.36 | pIC50 [2]: 6.60 | pIC50 [3]: 5.99 | viability, T/C (second compound 0.01 µM, first compound 0.0316 µM): 72.3% | viability, T/C (second compound 0.01 µM, first compound 0.1 µM): 62.5% | viability, T/C (second compound 0.01 µM, first compound 0.316 µM): 61.3% | viability, T/C (second compound 0.01 µM, first compound 1 µM): 55.5% | viability, T/C (second compound 0.01 µM, first compound 3.16 µM): 43.8% | viability, T/C (second compound 0.01 µM, first compound 10 µM): 24.9% | viability, T/C (second compound 0.0316 µM, first compound 0.0316 µM): 69.3% | viability, T/C (second compound 0.0316 µM, first compound 0.1 µM): 60.3% | viability, T/C (second compound 0.0316 µM, first compound 0.316 µM): 53% | viability, T/C (second compound 0.0316 µM, first compound 1 µM): 55.2% | viability, T/C (second compound 0.0316 µM, first compound 3.16 µM): 46.8% | viability, T/C (second compound 0.0316 µM, first compound 10 µM): 17.1% | viability, T/C (second compound 0.1 µM, first compound 0.0316 µM): 63.3% | viability, T/C (second compound 0.1 µM, first compound 0.1 µM): 50.6% | viability, T/C (second compound 0.1 µM, first compound 0.316 µM): 51.5% | viability, T/C (second compound 0.1 µM, first compound 1 µM): 46.4% | viability, T/C (second compound 0.1 µM, first compound 3.16 µM): 36.8% | viability, T/C (second compound 0.1 µM, first compound 10 µM): 18.6% | viability, T/C (second compound 0.316 µM, first compound 0.0316 µM): 61.4% | viability, T/C (second compound 0.316 µM, first compound 0.1 µM): 50.5% | viability, T/C (second compound 0.316 µM, first compound 0.316 µM): 46.8% | viability, T/C (second compound 0.316 µM, first compound 1 µM): 47.7% | viability, T/C (second compound 0.316 µM, first compound 3.16 µM): 31.6% | viability, T/C (second compound 0.316 µM, first compound 10 µM): 23.2% | viability, T/C (second compound 1 µM, first compound 0.0316 µM): 71.1% | viability, T/C (second compound 1 µM, first compound 0.1 µM): 60.2% | viability, T/C (second compound 1 µM, first compound 0.316 µM): 60.2% | viability, T/C (second compound 1 µM, first compound 1 µM): 50.7% | viability, T/C (second compound 1 µM, first compound 3.16 µM): 38.8% | viability, T/C (second compound 1 µM, first compound 10 µM): 21.7%
